Legend:
Assay in all cases: AUC of viability dose-response curve (% viability x log10 dose units); higher = less sensitive
Settings in all cases: 48 h
[1] = tested on: NOMO1
Procedure, shortened: (§1)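 Seeding of medium-adapted leukemia cells was at 500 or 1000 cells/well in 1536-well plates, followed by 48 h at 37°C with library compounds in DMSO at 11 threefold doses from 47 μM to 0.79 nM. CellTiter-Glo One luminescence was normalised per plate to DMSO and cell-free wells and fitted as a four-parameter log-logistic function of log10 dose. Area under the curve was integrated by trapezoidal rule, with curves exceeding full viability scaled and curves failing quality control removed.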

[2] = tested on: P12-Ichikawa
Procedure, shortened: as §1

[3] = tested on: SEM cells
Procedure, shortened: as §1

[4] = RPMI 5 mM glucose + 10% dialyzed FBS

CC(C)(Sc1ccc(CCN(CCCCC2CCCCC2)C(=O)NC2CCCCC2)cc1)C(=O)O
AUC of viability dose-response curve ([1]; HPLM + 10% dialyzed FBS): 467
AUC of viability dose-response curve ([1]; RPMI 5 mM glucose + 10% FBS): 467
AUC of viability dose-response curve [1, 4]: 472
AUC of viability dose-response curve ([2]; HPLM + 10% dialyzed FBS): 460
AUC of viability dose-response curve ([2]; RPMI 5 mM glucose + 10% FBS): 462
AUC of viability dose-response curve [2, 4]: 460
AUC of viability dose-response curve ([3]; HPLM + 10% dialyzed FBS): 460
AUC of viability dose-response curve ([3]; RPMI 5 mM glucose + 10% FBS): 463
AUC of viability dose-response curve [3, 4]: 472

Cc1c(C(=O)c2cccc3ccccc23)c2cccc3c2n1[C@H](CN1CCOCC1)CO3
AUC of viability dose-response curve ([1]; HPLM + 10% dialyzed FBS): 432
AUC of viability dose-response curve ([1]; RPMI 5 mM glucose + 10% FBS): 404
AUC of viability dose-response curve [1, 4]: 394
AUC of viability dose-response curve ([2]; HPLM + 10% dialyzed FBS): 417
AUC of viability dose-response curve ([2]; RPMI 5 mM glucose + 10% FBS): 366
AUC of viability dose-response curve [2, 4]: 397
AUC of viability dose-response curve ([3]; HPLM + 10% dialyzed FBS): 372
AUC of viability dose-response curve ([3]; RPMI 5 mM glucose + 10% FBS): 375
AUC of viability dose-response curve [3, 4]: 403

N#Cc1ccnc(N2C(=O)CC[C@H]2C(=O)N(c2cncc(F)c2)[C@H](C(=O)NC2CC(F)(F)C2)c2ccccc2Cl)c1
AUC of viability dose-response curve ([1]; HPLM + 10% dialyzed FBS): 348
AUC of viability dose-response curve ([1]; RPMI 5 mM glucose + 10% FBS): 356
AUC of viability dose-response curve [1, 4]: 380
AUC of viability dose-response curve ([2]; HPLM + 10% dialyzed FBS): 321
AUC of viability dose-response curve ([2]; RPMI 5 mM glucose + 10% FBS): 333
AUC of viability dose-response curve [2, 4]: 361
AUC of viability dose-response curve ([3]; HPLM + 10% dialyzed FBS): 359
AUC of viability dose-response curve ([3]; RPMI 5 mM glucose + 10% FBS): 334
AUC of viability dose-response curve [3, 4]: 379

N=C(N)Nc1ccc(C(=O)Oc2ccc3cc(C(=N)N)ccc3c2)cc1
AUC of viability dose-response curve ([1]; HPLM + 10% dialyzed FBS): 446
AUC of viability dose-response curve ([1]; RPMI 5 mM glucose + 10% FBS): 406
AUC of viability dose-response curve [1, 4]: 396
AUC of viability dose-response curve ([2]; HPLM + 10% dialyzed FBS): 437
AUC of viability dose-response curve ([2]; RPMI 5 mM glucose + 10% FBS): 443
AUC of viability dose-response curve [2, 4]: 404
AUC of viability dose-response curve ([3]; HPLM + 10% dialyzed FBS): 419
AUC of viability dose-response curve ([3]; RPMI 5 mM glucose + 10% FBS): 392
AUC of viability dose-response curve [3, 4]: 441

CCc1cc(-c2n[nH]c(C)c2-c2ccc3c(c2)OCCO3)c(O)cc1O
AUC of viability dose-response curve ([1]; HPLM + 10% dialyzed FBS): 450
AUC of viability dose-response curve ([1]; RPMI 5 mM glucose + 10% FBS): 447
AUC of viability dose-response curve [1, 4]: 448
AUC of viability dose-response curve ([2]; HPLM + 10% dialyzed FBS): 455
AUC of viability dose-response curve ([2]; RPMI 5 mM glucose + 10% FBS): 435
AUC of viability dose-response curve [2, 4]: 444
AUC of viability dose-response curve ([3]; HPLM + 10% dialyzed FBS): 422
AUC of viability dose-response curve ([3]; RPMI 5 mM glucose + 10% FBS): 414
AUC of viability dose-response curve [3, 4]: 418

C[N+]1(C)[C@@H]2CC(OC(=O)C(O)(c3cccs3)c3cccs3)C[C@H]1[C@@H]1O[C@@H]12 (stereo partly specified)
AUC of viability dose-response curve ([1]; HPLM + 10% dialyzed FBS): 464
AUC of viability dose-response curve ([1]; RPMI 5 mM glucose + 10% FBS): 466
AUC of viability dose-response curve [1, 4]: 471
AUC of viability dose-response curve ([2]; HPLM + 10% dialyzed FBS): 471
AUC of viability dose-response curve ([2]; RPMI 5 mM glucose + 10% FBS): 476
AUC of viability dose-response curve [2, 4]: 468
AUC of viability dose-response curve ([3]; HPLM + 10% dialyzed FBS): 462
AUC of viability dose-response curve ([3]; RPMI 5 mM glucose + 10% FBS): 460
AUC of viability dose-response curve [3, 4]: 457

COc1cc2c(Nc3ccc(Cl)c(Cl)c3F)ncnc2cc1OC[C@@H]1C[C@@H]2CN(C)C[C@@H]2C1
AUC of viability dose-response curve ([1]; HPLM + 10% dialyzed FBS): 421
AUC of viability dose-response curve ([1]; RPMI 5 mM glucose + 10% FBS): 450
AUC of viability dose-response curve [1, 4]: 447
AUC of viability dose-response curve ([2]; HPLM + 10% dialyzed FBS): 444
AUC of viability dose-response curve ([2]; RPMI 5 mM glucose + 10% FBS): 453
AUC of viability dose-response curve [2, 4]: 444
AUC of viability dose-response curve ([3]; HPLM + 10% dialyzed FBS): 384
AUC of viability dose-response curve ([3]; RPMI 5 mM glucose + 10% FBS): 443
AUC of viability dose-response curve [3, 4]: 438

CN1CCN(CCCN2c3ccccc3Sc3ccc(Cl)cc32)CC1.O=C(O)/C=C\C(=O)O.O=C(O)/C=C\C(=O)O
AUC of viability dose-response curve ([1]; HPLM + 10% dialyzed FBS): 362
AUC of viability dose-response curve ([1]; RPMI 5 mM glucose + 10% FBS): 390
AUC of viability dose-response curve [1, 4]: 386
AUC of viability dose-response curve ([2]; HPLM + 10% dialyzed FBS): 429
AUC of viability dose-response curve ([2]; RPMI 5 mM glucose + 10% FBS): 421
AUC of viability dose-response curve [2, 4]: 423
AUC of viability dose-response curve ([3]; HPLM + 10% dialyzed FBS): 471
AUC of viability dose-response curve ([3]; RPMI 5 mM glucose + 10% FBS): 466
AUC of viability dose-response curve [3, 4]: 465

COC(=O)Nc1nc2ccc([S+]([O-])c3ccccc3)cc2[nH]1 (stereo unspecified)
AUC of viability dose-response curve ([1]; HPLM + 10% dialyzed FBS): 460
AUC of viability dose-response curve ([1]; RPMI 5 mM glucose + 10% FBS): 468
AUC of viability dose-response curve [1, 4]: 466
AUC of viability dose-response curve ([2]; HPLM + 10% dialyzed FBS): 441
AUC of viability dose-response curve ([2]; RPMI 5 mM glucose + 10% FBS): 454
AUC of viability dose-response curve [2, 4]: 461
AUC of viability dose-response curve ([3]; HPLM + 10% dialyzed FBS): 417
AUC of viability dose-response curve ([3]; RPMI 5 mM glucose + 10% FBS): 438
AUC of viability dose-response curve [3, 4]: 441

O=C(NCC1CCOCC1)c1cnc(Nc2ccc(Cl)cc2Cl)nc1C(F)(F)F
AUC of viability dose-response curve ([1]; HPLM + 10% dialyzed FBS): 439
AUC of viability dose-response curve ([1]; RPMI 5 mM glucose + 10% FBS): 456
AUC of viability dose-response curve [1, 4]: 456
AUC of viability dose-response curve ([2]; HPLM + 10% dialyzed FBS): 450
AUC of viability dose-response curve ([2]; RPMI 5 mM glucose + 10% FBS): 472
AUC of viability dose-response curve [2, 4]: 465
AUC of viability dose-response curve ([3]; HPLM + 10% dialyzed FBS): 425
AUC of viability dose-response curve ([3]; RPMI 5 mM glucose + 10% FBS): 461
AUC of viability dose-response curve [3, 4]: 448

COC(=O)[C@H](c1ccccc1Cl)N1CCc2sccc2C1
AUC of viability dose-response curve ([1]; HPLM + 10% dialyzed FBS): 357
AUC of viability dose-response curve ([1]; RPMI 5 mM glucose + 10% FBS): 328
AUC of viability dose-response curve [1, 4]: 343
AUC of viability dose-response curve ([2]; HPLM + 10% dialyzed FBS): 414
AUC of viability dose-response curve ([2]; RPMI 5 mM glucose + 10% FBS): 416
AUC of viability dose-response curve [2, 4]: 427
AUC of viability dose-response curve ([3]; HPLM + 10% dialyzed FBS): 449
AUC of viability dose-response curve ([3]; RPMI 5 mM glucose + 10% FBS): 440
AUC of viability dose-response curve [3, 4]: 432

C[C@@H](N)C1CC[C@@H](CC1)C(=O)NC2=CC=NC=C2 (stereo partly specified)
AUC of viability dose-response curve ([1]; HPLM + 10% dialyzed FBS): 472
AUC of viability dose-response curve ([1]; RPMI 5 mM glucose + 10% FBS): 462
AUC of viability dose-response curve [1, 4]: 466
AUC of viability dose-response curve ([2]; HPLM + 10% dialyzed FBS): 469
AUC of viability dose-response curve ([2]; RPMI 5 mM glucose + 10% FBS): 470
AUC of viability dose-response curve [2, 4]: 470
AUC of viability dose-response curve ([3]; HPLM + 10% dialyzed FBS): 438
AUC of viability dose-response curve ([3]; RPMI 5 mM glucose + 10% FBS): 452
AUC of viability dose-response curve [3, 4]: 464

N=C(N)NC(=N)N1CCOCC1
AUC of viability dose-response curve ([1]; HPLM + 10% dialyzed FBS): 465
AUC of viability dose-response curve ([1]; RPMI 5 mM glucose + 10% FBS): 461
AUC of viability dose-response curve [1, 4]: 447
AUC of viability dose-response curve ([2]; HPLM + 10% dialyzed FBS): 473
AUC of viability dose-response curve ([2]; RPMI 5 mM glucose + 10% FBS): 454
AUC of viability dose-response curve [2, 4]: 463
AUC of viability dose-response curve ([3]; HPLM + 10% dialyzed FBS): 472
AUC of viability dose-response curve ([3]; RPMI 5 mM glucose + 10% FBS): 467
AUC of viability dose-response curve [3, 4]: 460

COc1cc(Cl)cn2c(-c3cccc(NC4CNC4)n3)cnc12
AUC of viability dose-response curve ([1]; HPLM + 10% dialyzed FBS): 472
AUC of viability dose-response curve ([1]; RPMI 5 mM glucose + 10% FBS): 468
AUC of viability dose-response curve [1, 4]: 454
AUC of viability dose-response curve ([2]; HPLM + 10% dialyzed FBS): 459
AUC of viability dose-response curve ([2]; RPMI 5 mM glucose + 10% FBS): 458
AUC of viability dose-response curve [2, 4]: 464
AUC of viability dose-response curve ([3]; HPLM + 10% dialyzed FBS): 453
AUC of viability dose-response curve ([3]; RPMI 5 mM glucose + 10% FBS): 442
AUC of viability dose-response curve [3, 4]: 440

Source: the supplement of paper PMC11451515
